Data: ChEMBL document CHEMBL4665668, “Design and development of molecular hybrids of 2-pyridylpiperazine and 5-phenyl-1,3,4-oxadiazoles as potential multifunctional agents to treat Alzheimer's disease” (Eur J Med Chem, 2019)
Active and inactive are the calls of the source. The rule behind the calls is not given here.

Key:
[1] = target: Beta-secretase 1 (Homo sapiens, UniProt P56817); assay: Inhibition of human BACE-1 using MOCA-SEV-NL-DAEFR-DNP-RR as substrate preincubated with substrate followed by enzyme addition by FRET assay
Sequence of Beta-secretase 1 (P56817 whole entry): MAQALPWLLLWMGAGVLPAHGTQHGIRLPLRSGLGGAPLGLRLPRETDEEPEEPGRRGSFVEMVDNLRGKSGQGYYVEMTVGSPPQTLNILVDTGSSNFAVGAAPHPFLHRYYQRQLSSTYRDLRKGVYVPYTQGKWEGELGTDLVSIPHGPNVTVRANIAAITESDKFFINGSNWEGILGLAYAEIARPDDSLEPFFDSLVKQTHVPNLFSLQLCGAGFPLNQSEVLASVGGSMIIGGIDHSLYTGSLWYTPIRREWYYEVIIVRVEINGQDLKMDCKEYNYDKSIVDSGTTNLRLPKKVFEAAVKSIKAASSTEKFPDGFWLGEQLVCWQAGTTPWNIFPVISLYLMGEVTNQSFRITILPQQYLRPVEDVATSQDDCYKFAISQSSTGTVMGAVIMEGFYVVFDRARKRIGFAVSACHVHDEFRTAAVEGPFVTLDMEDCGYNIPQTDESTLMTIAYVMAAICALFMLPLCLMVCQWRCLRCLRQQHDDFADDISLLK

[2] = target: Cholinesterase (Homo sapiens, UniProt P06276); assay: Inhibition of human serum BChE using butyrylthiocholine iodide as substrate preincubated for 10 mins followed by substrate addition by Ellman's method; assay type: cell-free
Sequence of Cholinesterase (P06276 whole entry): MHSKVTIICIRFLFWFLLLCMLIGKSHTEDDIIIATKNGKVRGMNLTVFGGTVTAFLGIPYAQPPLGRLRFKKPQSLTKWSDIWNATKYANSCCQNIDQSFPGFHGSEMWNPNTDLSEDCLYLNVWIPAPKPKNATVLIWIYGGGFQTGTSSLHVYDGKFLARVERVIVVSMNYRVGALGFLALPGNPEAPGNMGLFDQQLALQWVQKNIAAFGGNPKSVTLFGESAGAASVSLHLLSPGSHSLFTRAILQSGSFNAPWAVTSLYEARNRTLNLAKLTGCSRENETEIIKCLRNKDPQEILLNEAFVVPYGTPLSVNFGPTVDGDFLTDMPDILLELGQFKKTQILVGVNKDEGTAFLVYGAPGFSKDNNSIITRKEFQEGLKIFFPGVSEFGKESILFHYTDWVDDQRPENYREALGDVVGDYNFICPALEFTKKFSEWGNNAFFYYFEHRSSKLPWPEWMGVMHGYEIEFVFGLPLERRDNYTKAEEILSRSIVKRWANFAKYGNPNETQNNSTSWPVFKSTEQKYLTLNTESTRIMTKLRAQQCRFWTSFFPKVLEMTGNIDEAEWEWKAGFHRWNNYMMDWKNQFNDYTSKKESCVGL

[3] = target: T1, Acetylcholinesterase (Homo sapiens, UniProt P22303); assay: Inhibition of human erythrocytes AChE using acetylthiocholine iodide as substrate preincubated for 10 mins followed by substrate addition by Ellman's method; assay type: tissue-based, Erythrocyte
T1 sequence (P22303 whole entry): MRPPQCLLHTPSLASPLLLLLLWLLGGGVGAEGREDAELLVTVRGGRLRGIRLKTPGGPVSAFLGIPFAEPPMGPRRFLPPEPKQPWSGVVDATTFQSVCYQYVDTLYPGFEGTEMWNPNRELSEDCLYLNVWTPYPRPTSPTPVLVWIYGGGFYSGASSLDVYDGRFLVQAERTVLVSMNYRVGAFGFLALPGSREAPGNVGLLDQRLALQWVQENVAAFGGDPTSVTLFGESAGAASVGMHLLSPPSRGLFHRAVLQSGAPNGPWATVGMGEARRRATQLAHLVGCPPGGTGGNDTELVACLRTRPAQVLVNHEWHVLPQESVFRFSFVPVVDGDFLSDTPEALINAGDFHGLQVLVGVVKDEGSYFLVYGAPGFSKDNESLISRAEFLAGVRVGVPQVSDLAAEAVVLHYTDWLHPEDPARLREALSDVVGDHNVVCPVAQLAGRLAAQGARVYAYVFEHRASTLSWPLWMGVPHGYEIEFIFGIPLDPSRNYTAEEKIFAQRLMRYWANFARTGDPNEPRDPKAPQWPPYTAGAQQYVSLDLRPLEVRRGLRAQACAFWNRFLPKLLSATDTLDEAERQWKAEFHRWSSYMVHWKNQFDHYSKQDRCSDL

[4] = Permeability of the compound in PBS/EtOH buffer (7:3) at 25 ug/ml after 18 hrs by PAMPA-BBB assay
[5] = system: SH-SY5Y; assay: Neuroprotective activity against amyloid beta (1 to 42)-induced oxidative stress in human SH-SY5Y cells assessed as effect on cell viability at 10 to 80 uM measured after 24 hrs by MTT assay (reference value: 61 %); assay type: functional; settings: dose microM 10-80
[6] = Acute toxicity in Wistar rat assessed as abnormal signs at 100 to 500 mg/kg, po measured up to 14 days by OCED guideline method; assay type: organism-based; settings: in vivo, 336 h, dose 100-500 mg/kg, time 14 day
[7] = Acute toxicity in po dosed Wistar rat assessed as maximum tolerated dose by OCED guideline method; assay type: organism-based; settings: in vivo
[8] = system: Rattus norvegicus; assay: Cognitive enhancing effect in po dosed scopolamine-induced Wistar rat model of amnesia assessed as increase in spontaneous alteration pretreated for 7 days followed by scopolamine challenge and measured after 30 mins by Y-maze test; assay type: functional, organism-based; settings: dose mg/kg 2.5-10, time 7.0 day
[9] = system: Rattus norvegicus; assay: Cognitive enhancing effect in scopolamine-induced Wistar rat model of amnesia assessed as increase in spontaneous alteration at 10 mg/kg, po pretreated for 7 days followed by scopolamine challenge and measured after 30 mins by Y-maze test; assay type: functional, organism-based; settings: time 7.0 day
[10] = target: Amyloid-beta precursor protein (Homo sapiens) (UniProt P05067); settings: dose microM 5-20, time 48.0 hrs
Sequence of Amyloid-beta precursor protein (Homo sapiens) (P05067 whole entry): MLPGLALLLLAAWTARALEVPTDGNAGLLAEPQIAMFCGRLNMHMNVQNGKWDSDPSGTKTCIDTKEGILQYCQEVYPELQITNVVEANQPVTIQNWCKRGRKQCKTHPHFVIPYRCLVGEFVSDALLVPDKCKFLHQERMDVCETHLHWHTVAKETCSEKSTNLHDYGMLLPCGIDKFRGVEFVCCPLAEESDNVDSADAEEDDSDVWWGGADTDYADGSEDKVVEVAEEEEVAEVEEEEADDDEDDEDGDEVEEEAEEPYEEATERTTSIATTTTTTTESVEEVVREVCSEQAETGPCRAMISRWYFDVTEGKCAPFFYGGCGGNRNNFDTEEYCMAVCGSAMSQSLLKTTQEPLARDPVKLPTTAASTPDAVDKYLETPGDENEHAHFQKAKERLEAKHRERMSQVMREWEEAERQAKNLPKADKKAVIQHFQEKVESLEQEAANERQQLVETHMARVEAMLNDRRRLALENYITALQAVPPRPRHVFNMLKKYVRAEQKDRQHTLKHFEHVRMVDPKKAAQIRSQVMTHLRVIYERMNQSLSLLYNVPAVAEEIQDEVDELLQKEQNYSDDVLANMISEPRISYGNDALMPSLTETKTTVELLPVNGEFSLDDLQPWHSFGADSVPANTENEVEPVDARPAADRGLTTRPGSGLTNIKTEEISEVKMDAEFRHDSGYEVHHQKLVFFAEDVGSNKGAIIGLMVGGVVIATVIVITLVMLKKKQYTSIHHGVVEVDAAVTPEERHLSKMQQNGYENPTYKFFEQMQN

[11] = target: T1, Acetylcholinesterase; settings: dose microM 5-20, time 48.0 hrs

## c1ccc(-c2nnc(N3CCN(c4ccccn4)CC3)o2)cc1
[1]
  IC50: 3220 nM
[2]
  IC50: 3270 nM
[3]
  IC50: 341 nM

## FC(F)(F)c1ccc(-c2nnc(N3CCN(c4ccccn4)CC3)o2)cc1
[1]
  IC50: 465 nM
[2]
  IC50: 2120 nM
[3]
  IC50: 182 nM
[4]
  Papp at 18 h, 25 ug/ml: 6.3 ×10⁻⁶ cm/s

## COc1cc(/C=N/NC(=O)N2CCN(c3ccccn3)CC2)cc(OC)c1OC
[1]
  IC50: 4640 nM
[2]
  IC50: 4680 nM
[3]
  IC50: 5690 nM

## FC(F)(F)Oc1ccc(-c2nnc(N3CCN(c4ccccn4)CC3)o2)cc1
[1]
  IC50: 822 nM
[2]
  IC50: 1960 nM
[3]
  IC50: 89 nM
[4]
  Papp at 18 h, 25 ug/ml: 6.8 ×10⁻⁶ cm/s

## O=C(N/N=C/c1ccc(OC(F)(F)F)cc1)N1CCN(c2ccccn2)CC1
[1]
  IC50: 248 nM
[2]
  IC50: 4350 nM
[3]
  IC50: 2910 nM

## O=C(N/N=C/c1ccccc1O)N1CCN(c2ccccn2)CC1
[1]
  IC50: 5880 nM
[2]
  IC50: > 10000 nM
[3]
  IC50: > 10000 nM

## Oc1ccc(-c2nnc(N3CCN(c4ccccn4)CC3)o2)cc1
[1]
  IC50: 1780 nM
[2]
  IC50: 6020 nM
[3]
  IC50: 1180 nM

## O=C(N/N=C/c1ccc([N+](=O)[O-])cc1)N1CCN(c2ccccn2)CC1
[1]
  IC50: 2640 nM
[2]
  IC50: 4020 nM
[3]
  IC50: 1160 nM

## Brc1ccc(-c2nnc(N3CCN(c4ccccn4)CC3)o2)cc1
[1]
  IC50: 126 nM
[2]
  IC50: 846 nM
[3]
  IC50: 74 nM
[4]
  Papp at 18 h, 25 ug/ml: 5.9 ×10⁻⁶ cm/s
[5]
  Activity: 63%
[6]
  Activity: Non-Toxic
[7]
  MTD: 100 mg/kg
[8]
  Activity: Dose-dependent effect
[9]
  Activity: Active
[10]
  Flu intensity: 0.42
[11]
  Flu intensity: 0.6

## COc1cccc(/C=N/NC(=O)N2CCN(c3ccccn3)CC2)c1OC
[1]
  IC50: 6820 nM
[2]
  IC50: > 10000 nM
[3]
  IC50: > 10000 nM

## O=C(N/N=C/c1ccc(O)cc1O)N1CCN(c2ccccn2)CC1
[1]
  IC50: 4640 nM
[2]
  IC50: 4820 nM
[3]
  IC50: 4680 nM

## Fc1ccc(-c2nnc(N3CCN(c4ccccn4)CC3)o2)cc1
[1]
  IC50: 1480 nM
[2]
  IC50: 1220 nM
[3]
  IC50: 136 nM

## O=[N+]([O-])c1ccc(-c2nnc(N3CCN(c4ccccn4)CC3)o2)cc1
[1]
  IC50: 1340 nM
[2]
  IC50: 2860 nM
[3]
  IC50: 219 nM

## COc1cc(-c2nnc(N3CCN(c4ccccn4)CC3)o2)cc(OC)c1OC
[1]
  IC50: 3240 nM
[2]
  IC50: 3640 nM
[3]
  IC50: 222 nM

## O=C(N/N=C/c1ccc(C(F)(F)F)cc1)N1CCN(c2ccccn2)CC1
[1]
  IC50: 1820 nM
[2]
  IC50: 4040 nM
[3]
  IC50: 1320 nM

## O=C(N/N=C/c1ccc(Br)cc1)N1CCN(c2ccccn2)CC1
[1]
  IC50: 296 nM
[2]
  IC50: 1880 nM
[3]
  IC50: 489 nM
[4]
  Papp at 18 h, 25 ug/ml: 3.6 ×10⁻⁶ cm/s
